Active and inactive are the calls of the source. How the calls were made is not given here.
The compounds below were run on cytotoxicity counter-screen, luminescence read-out (assay: cytotoxicity of HIV fusion inhibitor analogs, SAR follow-up, cytotoxicity control for HIV fusion inhibitor project, cell-based, luminescence (AID 435031)).

**Q.** With `O=C(N/N=C/c1c(O)n(C2CCCCC2)c(=S)[nH]c1=O)c1ccccc1O` as the compound, how does the CC50 read?
**A.** > 100 µM (inactive)

**Q.** Which CC50 does the source give for `COc1cc(/C=N/NS(=O)(=O)c2ccc3ccccc3c2)ccc1OCc1ccc(C(=O)O)cc1` here?
**A.** > 100 µM (inactive)

**Q.** With `CC(C)S(=O)(=O)C1=NSC2=NC(=O)/C(=C\c3ccc(-c4ccccc4)o3)C(=N)N21` as the compound, how does the CC50 read?
**A.** > 100 µM (inactive)

**Q.** Which CC50 does the source give for `CS(=O)(=O)C1=NSC2=NC(=O)/C(=C\c3ccc(OS(=O)(=O)c4ccccc4)cc3)C(=N)N21` here?
**A.** > 100 µM (inactive)

**Q.** With `O=C(O)CCCN1C(=O)/C(=C/c2ccc(-c3nc4ccccc4s3)o2)SC1=S` as the compound, how does the CC50 read?
**A.** > 100 µM (inactive)

**Q.** With `CCOC(=O)c1sc(N2C(=O)C(O)=C(C(=O)c3ccc(C)o3)C2c2cccc([N+](=O)[O-])c2)nc1C` (stereo unspecified) as the compound, how does the CC50 read?
**A.** > 100 µM (inactive)

**Q.** With `COc1ccccc1NS(=O)(=O)c1cccc(-n2c(O)c(C=Nc3ccccc3C(=O)O)c3ccccc3c2=O)c1` as the compound, how does the CC50 read?
**A.** > 100 µM (inactive)

**Q.** For `CCC(Sc1nc2ccsc2c(=O)n1Cc1ccc(C(=O)O)cc1)C(=O)Nc1ccc(C)c(Cl)c1` (stereo unspecified), which CC50 is on record?
**A.** > 100 µM (inactive)

**Q.** `COc1cc(C=NNc2ccc(Cl)c(C(=O)O)c2)ccc1OC(=O)c1ccc(F)cc1` was tested. Which CC50 did it give?
**A.** > 100 µM (inactive)

**Q.** With `O=C(O)c1ccccc1N=Nc1c(O)[nH]c2ccc([N+](=O)[O-])cc12` as the compound, how does the CC50 read?
**A.** > 100 µM (inactive)

**Q.** How did the CC50 turn out when `O=C1NC(=S)N(c2ccc(F)cc2)C(=O)/C1=C\c1ccoc1` was run?
**A.** > 100 µM (inactive)

**Q.** For `O=c1c(=Cc2cc([N+](=O)[O-])cc([N+](=O)[O-])c2O)sc2nc3ccccc3n12`, which CC50 is on record?
**A.** > 100 µM (inactive)

**Q.** With `O=[N+]([O-])c1cc([N+](=O)[O-])c2oc(-c3ccccc3)c(Br)c2c1O` as the compound, how does the CC50 read?
**A.** > 100 µM (inactive)

**Q.** `O=C1NC(=S)N(c2ccc(F)cc2)C(=O)/C1=C/c1ccco1` was tested. Which CC50 did it give?
**A.** > 100 µM (inactive)

**Q.** With `Cc1ccc(S(=O)(=O)Oc2ccc(/C=C3/C(=N)N4C(=NC3=O)SN=C4S(C)(=O)=O)cc2)cc1` as the compound, how does the CC50 read?
**A.** 91 µM

**Q.** With `COc1ccc(OC)c(N2C(=O)/C(=C/c3ccco3)C(=O)NC2=S)c1` as the compound, how does the CC50 read?
**A.** > 100 µM (inactive)

**Q.** With `O=C(O)c1ccccc1C(=O)N(Cc1cccc(Oc2ccc(Cl)cc2)c1)[C@H]1CCCc2ccccc21` as the compound, how does the CC50 read?
**A.** 19 µM

**Q.** How did the CC50 turn out when `COc1cc(/C=C2\SC(=O)N(c3ccccc3Cl)C2=O)cc([N+](=O)[O-])c1O` was run?
**A.** > 100 µM (inactive)

**Q.** `Cc1c(Cl)cccc1NS(=O)(=O)c1ccc2c(c1)C1C=CCC1C(c1ccc(C(=O)O)cc1)N2` (stereo unspecified) was tested. Which CC50 did it give?
**A.** > 100 µM (inactive)

**Q.** How did the CC50 turn out when `Oc1c(Cl)cc(Cl)c(Cl)c1Cc1c(O)c(Cl)cc(Cl)c1Cl` was run?
**A.** 18 µM

**Q.** Which CC50 does the source give for `CS(=O)(=O)C1=NSC2=NC(=O)/C(=C\c3cccn3-c3ccc(Cl)cc3)C(=N)N21` here?
**A.** > 100 µM (inactive)

**Q.** With `CSc1nnc(-c2ccccc2N=Cc2c(C)[nH]n(-c3ccc4ccccc4c3)c2=O)c(=O)[nH]1` as the compound, how does the CC50 read?
**A.** > 100 µM (inactive)

**Q.** With `CC(C)S(=O)(=O)C1=NSC2=NC(=O)/C(=C\c3ccc(-c4cccc(C(=O)O)c4)o3)C(=N)N21` as the compound, how does the CC50 read?
**A.** > 100 µM (inactive)

**Q.** For `COc1cc(C=NNc2ccc(Cl)c(C(=O)O)c2)ccc1OC(=O)c1ccccc1F`, which CC50 is on record?
**A.** > 100 µM (inactive)

**Q.** For `CCC(C)(C)C1CCc2c(sc(NC(=O)c3ccccc3C(=O)O)c2C#N)C1` (stereo unspecified), which CC50 is on record?
**A.** 22 µM

**Q.** For `COc1ccc(C(=O)Oc2ccc(C=NNc3ccc(Cl)c(C(=O)O)c3)cc2OC)cc1`, which CC50 is on record?
**A.** > 100 µM (inactive)

**Q.** Which CC50 does the source give for `CCOC(=O)C1=C(C)N=c2sc(=Cc3ccc(OCC(=O)O)cc3)c(=O)n2C1c1ccc(OC(C)C)cc1` (stereo unspecified) here?
**A.** 32 µM

**Q.** How did the CC50 turn out when `COC(=O)c1sc(-c2ccc(C(C)(C)C)cc2)cc1NC(=O)c1ccccc1C(=O)O` was run?
**A.** 17 µM

**Q.** With `CC1(C)CC(=O)C2=C(C1)c1c(ccc3ccccc13)NC2c1cc([N+](=O)[O-])cc([N+](=O)[O-])c1O` (stereo unspecified) as the compound, how does the CC50 read?
**A.** > 100 µM (inactive)

**Q.** Which CC50 does the source give for `N#C/C(=C\c1ccc(OCc2ccc(Cl)cc2)cc1)C(=O)Nc1cccc(C(=O)O)c1` here?
**A.** > 100 µM (inactive)

**Q.** For `CC(C)(C)c1cc(-c2csc(Nc3ccccc3)[n+]2Cc2ccc(C(=O)O)cc2)cc(C(C)(C)C)c1O`, which CC50 is on record?
**A.** 13.7 µM

From PubChem BioAssay AID435031 (Sanford-Burnham Center for Chemical Genomics, 2010)
